Data: US20050260219A1, “Carboxypeptidases B from anopheles gambiae. compositions comprising them, vaccine applications and use as therapeutical targets” (INSTITUT PASTEUR, priority 2004, published 2005)
Residues, ends and D or L forms follow the SMILES beside them. *: point of attachment. Bz = O=C(c1ccccc1)*

Legend:
recombinant CPBAg1 [1] = biological target: T1, recombinant CPBAg1 (Anopheles gambiae, UniProt Q702G3); assay: Effect of inhibitors on CPBAg1 activity (Hip-Arg as substrate); assay type: biochemical; conditions: for Activity (%): relative to control without inhibitor
T1 sequence (Q702G3 20-423): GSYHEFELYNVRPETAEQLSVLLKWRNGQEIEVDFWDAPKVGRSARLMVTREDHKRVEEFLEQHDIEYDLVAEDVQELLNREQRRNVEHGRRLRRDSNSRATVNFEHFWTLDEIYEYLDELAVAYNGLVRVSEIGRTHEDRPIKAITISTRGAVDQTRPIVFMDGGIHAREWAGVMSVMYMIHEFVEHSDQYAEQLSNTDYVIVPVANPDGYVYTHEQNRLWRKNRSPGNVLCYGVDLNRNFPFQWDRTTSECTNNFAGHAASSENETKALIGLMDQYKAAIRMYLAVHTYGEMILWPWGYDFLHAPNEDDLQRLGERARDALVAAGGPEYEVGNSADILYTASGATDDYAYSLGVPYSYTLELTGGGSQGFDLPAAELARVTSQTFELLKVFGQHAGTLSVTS
Procedure: (§1) Carboxypeptidase activity was determined using the synthetic di-peptide substrates Hippuryl-Arginine (Hip-Arg), Hippuryl-Lysine (Hip-Lys) as carboxypeptidase B substrates and Hippuryl-Phenylalanine (Hip-Phe) as carboxypeptidase A substrate. All reagents were purchased from Sigma. Activities were assayed in 20 μl E buffer (100 mM NaCl/50 mM Hepes/100 μM ZnCl2 pH 7.2) containing 1 mM Hip-Arg, Hip-Lys or Hip-Phe. The reaction was initiated by adding an equal volume of His-tagged CPBAg1 (5 ng/μl in E buffer), incubated at 25° C. for 10-40 min, and stopped by the addition of 20 μl Ninhydrin reagent (Sigma, Lyon, France). The rate of the reaction was measured by estimating the amount of released amino acids using the ninhydrin procedure (60). One unit of enzyme activity was defined as μmol of amino acids released/min.
Inhibitory effects of the chelating agent 1,10-phenantroline (Sigma, Lyon, France), and of the arginine analogue GEMSA (Guanidinoethylmercaptosuccinic acid, Fluka) on CPBAg1 activity were assayed as follows: different concentrations ([…]-1 mM) of inhibitors were preincubated at 25° C. for 30 min with the recombinant protein in E buffer before addition of Hip-Arg. Activity was measured as described above and was expressed as the percentage of activity relative to controls performed in absence of inhibitor.
Accordingly, CPBAg1 activity was inhibited by the active site-directed inhibitor GEMSA, which is an arginine analogue (Table 2). Activity of the purified recombinant CPBAg1 produced in the baculovirus was assayed after incubation with the zinc-carboxypeptidase inhibitor 1,10-phenantroline and the active site-directed inhibitor GEMSA, using Hyp-Arg as substrate. 100% activity corresponds to 1.1 and 0.8 unit/mg for 1,10-phenanatroline and GEMSA experiments, respectively.

[2] = system: P. falciparum development in An. gambiae; assay: Effect of CPB substrates, free L-arginine and free L-lysine added to infected blood meal on P. falciparum development in An. gambiae; assay type: in vivo, Plasmodium falciparum; conditions: day 7 post feeding; for % Infected mosquitoes (number of dissected mosquitoes): pooled infections; for Mean number of oocysts (range): per positive midgut
Procedure: Asymptomatic village people (Senegal) or schoolchildren aged ≦10 years old (Cameroon) were mass-screened to detect parasite carriers as previously described (12). All participants were volunteers and the consent of the children's parents was obtained. The experimental protocols were approved by the Cameroonian and the Senegalese National Ethics Committees. Infections and control experiments were performed with the blood from gametocyte carrier volunteers and with the blood from parasite-free donors. Venous blood (10 ml) was collected in a heparin coated and pre-warmed tube, centrifuged for 5 minutes, 5,000 rpm, at 37° C. and the serum of the patient immediatly replaced with a prewarmed AB serum collected from donors not living in a malaria endemic country. For each experiment, batches of 60 nulliparous female mosquitoes (5 days old) starved from sugar for 24 h were fed for 10 minutes, using the artificial membrane feeding technique (24). Fully engorged females were maintained at the insectarium until dissection. For each experiment a control batch of mosquitoes was used to determine the rate and intensity of infection by oocyst detection on day 7 post feeding. These experiments were performed with a control providing an infection rate close to or above 50%. As described below these basic procedures for infecting An. gambiae with P. falciparum were modified to answer specific issues.
Mosquito infections were performed with the blood from volunteers harboring a low gametocytaemia, as described above, except that 10 μl of L-arginine (Sigma), L-lysine (Sigma), Hippuryl-Lysine (Sigma) or Hippuryl-Arginine (Sigma) at 10, 1, 0.1 and 0.01 mM in TrisHCl 50 mM pH 7.2 were added to 500 μl of P. falciparum infected blood just before mosquito feeding. As a control 10 μl of TrisHCl 50 mM pH 7.2 was added to the P. falciparum infected blood. Triplicate experiments using the blood of three different gametocyte carriers were performed except for L-lysine where only two experiments could be performed. Rate and intensity of infection were scored on day 7 after blood feeding by detection of oocysts on the mosquito midgut wall.
For the data presented in Table 4 (below), An. gambiae were fed on P. falciparum infected blood supplemented with CPB substrates: Hippuryl-Arginine or Hippuryl-Lysine. Proportion of infected mosquitoes and oocyst counts per positive midgut were determined on day 7 post feeding. For each substrate and concentration tested, data from three independent infections were pooled. […] The infected blood harboured few gametocytes resulting in a low infection rate in the control and thereby allowing the detection of the effect of carboxypeptidase substrates.
For the data presented in Table 5 (below), An. gambiae were fed on P. falciparum infected blood supplemented with L-arginine or L-lysine at three different concentrations. Proportion of infected mosquitoes and oocyst counts per positive midgut were determined on day 7 post feeding. Data were pooled from three independent infections for L-arginine experiments, and from two independent infections for L-lysine experiments.

recombinant CPBAg1 [3] = biological target: T1, recombinant CPBAg1; assay: Carboxypeptidase activity assay on recombinant CPBAg1 with di-peptide substrates; assay type: biochemical; conditions: for Enzyme activity: purified recombinant CPBAg1 from baculovirus, 1 mM substrate, 1 unit cleaves 1 μmol product/min
Procedure: as §1
Estimation of Km and kcat was carried out after assays over a 500-fold range of Hip-Arg concentration (0.02-10 mM). Each concentration was assayed in triplicate. The kinetic parameters were derived from iterative non-linear least square fits of the Michaelis-Menten equation using the experimental data (61). Confidence limits for the fitted values were determined by 100 Monte Carlo iterations using the experimental standard deviations on individual measurements.
Activity of the purified recombinant CPBAg1 produced in baculovirus was assayed against the carboxypeptidase B di-peptide substrates Hippuryl-Arginine (Hip-Arg) and Hippuryl-Lysine (Hip-Lys) and the carboxypeptidase A di-peptide substrate Hippuryl-Phenylalanine (Hip-Phe). 1 unit cleaves 1 μmol product/min.

`c1cnc2c(c1)ccc1cccnc12` [1,10-phenantroline] was tested, and the “Activity (%)” value (recombinant CPBAg1 [1]; inhibitor 0.1 μM) was 96 ± 2%, the “Activity (%)” value (recombinant CPBAg1 [1]; inhibitor 10 μM) was 87 ± 8% and the “Activity (%)” value (recombinant CPBAg1 [1]; inhibitor 100 μM) was 35 ± 5%. The “Activity (%)” value (recombinant CPBAg1 [1]; inhibitor 1000 μM) was 24 ± 5%.

In the case of `NCCCC[C@H](NC(=O)CNC(=O)c1ccccc1)C(=O)O` [Hippuryl-Lysine] (Bz-Gly-Lys-OH), the “% Infected mosquitoes (number of dissected mosquitoes)” value (“% Infected mosquitoes” for short) ([2]; 100 μM) is reported as 41.1 (90) %, the “Mean number of oocysts (range)” value ([2]; 100 μM) is reported as 2.4 (1-6) and the “% Infected mosquitoes” value ([2]; 1 mM) is reported as 46.7 (92) %. The “Mean number of oocysts (range)” value ([2]; 1 mM) was 2.5 (1-12), the “% Infected mosquitoes” value ([2]; 10 mM) was 23.8 (80) % and the “Mean number of oocysts (range)” value ([2]; 10 mM) was 2.1 (1-6). For the same molecule, the Enzyme activity (recombinant CPBAg1 [3]) was 0.24 ± 0.02 unit/mg.

`N=C(N)NCCC[C@H](N)C(=O)O` [L-arginine] was tested, and the “% Infected mosquitoes” value ([2]; 100 μM) was 38.4 (86) %, the “Mean number of oocysts (range)” value ([2]; 100 μM) was 3.2 (1-13) and the “% Infected mosquitoes” value ([2]; 1 mM) was 34.4 (64) %. The “Mean number of oocysts (range)” value ([2]; 1 mM) was 5.3 (1-26), the “% Infected mosquitoes” value ([2]; 10 mM) was 55.2 (58) % and the “Mean number of oocysts (range)” value ([2]; 10 mM) was 5.2 (1-31).

In the case of `N=C(N)NCCC[C@H](NC(=O)CNC(=O)c1ccccc1)C(=O)O` [Hippuryl-Arginine] (Bz-Gly-Arg-OH), the “% Infected mosquitoes” value ([2]; 10 μM) is reported as 26.3 (80) %, the “Mean number of oocysts (range)” value ([2]; 10 μM) is reported as 2.3 (1-10) and the “% Infected mosquitoes” value ([2]; 100 μM) is reported as 40.9 (88) %. The “Mean number of oocysts (range)” value ([2]; 100 μM) was 2.1 (1-7), the “% Infected mosquitoes” value ([2]; 1 mM) was 28 (50) % and the “Mean number of oocysts (range)” value ([2]; 1 mM) was 2.1 (1-8). For the same molecule, the Enzyme activity (recombinant CPBAg1 [3]) was 0.83 ± 0.01 unit/mg and the “activity against Hip-Arg relative to Hip-Lys” value (recombinant CPBAg1 [3]; ratio of enzyme activities of Table 1) was “approximately 3.5 times”.

`NCCCC[C@H](N)C(=O)O` [L-lysine] was tested, and the “% Infected mosquitoes” value ([2]; 10 μM) was 62.9 (35) %, the “Mean number of oocysts (range)” value ([2]; 10 μM) was 8.2 (1-18) and the “% Infected mosquitoes” value ([2]; 100 μM) was 42.1 (38) %. For the same molecule, the “Mean number of oocysts (range)” value ([2]; 100 μM) was 4.9 (1-15), the “% Infected mosquitoes” value ([2]; 1 mM) was 30.5 (36) % and the “Mean number of oocysts (range)” value ([2]; 1 mM) was 8.3 (1-44).

For `O=C(CNC(=O)c1ccccc1)N[C@@H](Cc1ccccc1)C(=O)O` [Hip-Phe, Hippuryl-Phenylalanine] (Bz-Gly-Phe-OH), the Enzyme activity (recombinant CPBAg1 [3]) was 0 unit/mg.

Work on `N=C(N)NCCSC(CC(=O)O)C(=O)O` (stereo not drawn) [GEMSA, Guanidinoethylmercaptosuccinic acid] yielded an activity at 0.1 µM (recombinant CPBAg1 [1]) of 96 ± 2%, an activity at 10 µM (recombinant CPBAg1 [1]) of 41% and an activity at 100 µM (recombinant CPBAg1 [1]) of 20 ± 2%. For the same molecule, the activity at 1000 µM (recombinant CPBAg1 [1]) was 7 ± 11%.
